According to ChEMBL document CHEMBL1139278 (2009):

Columns and labels:
Assay type in all cases: functional
Staphylococcus aureus [1] = experiment: Antimicrobial activity against methicillin-susceptible Staphylococcus aureus Smith by NCCLS method
Staphylococcus aureus [2] = experiment: Antimicrobial activity against methicillin-resistant Staphylococcus aureus KMP9
Streptococcus pneumoniae [3] = experiment: Antimicrobial activity against penicillin-susceptible Streptococcus pneumoniae ATCC 49619 by NCCLS method
Streptococcus pneumoniae [4] = experiment: Antimicrobial activity against penicillin-resistant Streptococcus pneumoniae KT2524 by NCCLS method
Streptococcus pyogenes = experiment: Antimicrobial activity against Streptococcus pyogenes ATCC 112344 by NCCLS method
Enterococcus faecium = experiment: Antimicrobial activity against vancomycin-resistant Enterococcus faecium KU1778 by NCCLS method
Moraxella catarrhalis = experiment: Antimicrobial activity against Moraxella catarrhalis K1209 by NCCLS method
Haemophilus influenzae = experiment: Antimicrobial activity against Haemophilus influenzae TH13 by NCCLS method
Staphylococcus aureus [5] = experiment: Antimicrobial activity against methicillin-susceptible Staphylococcus aureus infected iv dosed mouse assessed as survival rate after 1 hr of infection

Row | Compound | MIC (Staphylococcus aureus [1]) [µg/mL] | MIC (Staphylococcus aureus [2]) [µg/mL] | MIC (Streptococcus pneumoniae [3]) [µg/mL] | MIC (Streptococcus pneumoniae [4]) [µg/mL] | MIC (Streptococcus pyogenes) [µg/mL] | MIC (Enterococcus faecium) [µg/mL] | MIC (Moraxella catarrhalis) [µg/mL] | MIC (Haemophilus influenzae) [µg/mL] | ED50 (Staphylococcus aureus [5]) [mg/kg]
1 | C=C[C@]1(C)C[C@@H](OC(=O)CN2CCCN(C(=O)CCn3cnc4c(N5CCC(N)C5)ncnc43)CC2)[C@]2(C)[C@H](C)CC[C@]3(CCC(=O)[C@@H]32)[C@@H](C)[C@@H]1O.Cl.Cl (stereo partly drawn) | 0.5 | 1 | 0.063 | 0.063 | 0.032 | 0.25 | 0.25 | 4 | 2.51
2 | C=C[C@]1(C)C[C@@H](OC(=O)CN2CCN(C(=O)CCn3cnc4c(N5CC[C@@H](N)C5)ncnc43)[C@@H](C)C2)[C@]2(C)[C@H](C)CC[C@]3(CCC(=O)[C@@H]32)[C@@H](C)[C@@H]1O.Cl.Cl | 0.125 | 0.25 | 0.032 | 0.032 | 0.016 | 0.125 | 0.125 | 2 | 1.56
3 | C=C[C@]1(C)C[C@@H](OC(=O)CN2CCN(C(=O)CCn3cnc4c(N5CCNCC5)ncnc43)CC2)[C@]2(C)[C@H](C)CC[C@]3(CCC(=O)[C@@H]32)[C@@H](C)[C@@H]1O.Cl.Cl | 0.125 | 0.25 | 0.063 | 0.063 | 0.032 | 0.063 | 0.063 | 2 | 1.65
4 | C=C[C@]1(C)C[C@@H](OC(=O)CN2CCN(C(=O)CCn3cnc4c(N5CCC(N)CC5)ncnc43)CC2)[C@]2(C)[C@H](C)CC[C@]3(CCC(=O)[C@@H]32)[C@@H](C)[C@@H]1O.Cl.Cl | 0.25 | 1 | 0.125 | 0.125 | 0.032 | 0.25 | 0.125 | 2 | 0.97
5 | C=C[C@]1(C)C[C@@H](OC(=O)CN2CCN(C(=O)CCn3cnc4c(N5CCC(N)C5)ncnc43)C[C@@H]2C)[C@]2(C)[C@H](C)CC[C@]3(CCC(=O)[C@@H]32)[C@@H](C)[C@@H]1O.Cl (stereo partly drawn) | 0.25 | 0.5 | 0.125 | 0.063 | 0.032 | 0.125 | 0.125 | 4 | 1.28
6 | C=C[C@]1(C)C[C@@H](OC(=O)CN2CCN(C(=O)CCn3cnc4c(N5CCC(N(C)C)C5)ncnc43)CC2)[C@]2(C)[C@H](C)CC[C@]3(CCC(=O)[C@@H]32)[C@@H](C)[C@@H]1O.Cl.Cl (stereo partly drawn) | 0.25 | 0.25 | 0.125 | 0.063 | 0.063 | 0.125 | 0.125 | 4 | 2.94
7 | C=C[C@]1(C)C[C@@H](OC(=O)CN2CCN(C(=O)CCn3cnc4c(N5CC[C@H](CNC)C5)ncnc43)[C@@H](C)C2)[C@]2(C)[C@H](C)CC[C@]3(CCC(=O)[C@@H]32)[C@@H](C)[C@@H]1O.Cl.Cl | 0.25 | 0.5 | 0.063 | 0.063 | 0.032 | 0.25 | 0.125 | 2 | 1.1
8 | C=C[C@]1(C)C[C@@H](OC(=O)CN2CC(C)N(C(=O)CCn3cnc4c(N5CCC(N)C5)ncnc43)CC2C)[C@]2(C)[C@H](C)CC[C@]3(CCC(=O)[C@@H]32)[C@@H](C)[C@@H]1O.Cl.Cl (stereo partly drawn) | 0.25 | 0.25 | 0.063 | 0.063 | 0.032 | 0.125 | 0.125 | 4 | 3.13
9 | C=C[C@]1(C)C[C@@H](OC(=O)CN2CCN(C(=O)CCn3cnc4c(N5CCC(N)C5)ncnc43)CC2)[C@]2(C)[C@H](C)CC[C@]3(CCC(=O)[C@@H]32)[C@@H](C)[C@@H]1O.Cl.Cl (stereo partly drawn) | 0.25 | 1 | 0.063 | 0.063 | 0.032 | 0.5 | 0.25 | 4 | 0.8
10 | C=C[C@]1(C)C[C@@H](OC(=O)CN2CCN(C(=O)CCn3cnc4c(N5CCC(N)C5)ncnc43)CC2C)[C@]2(C)[C@H](C)CC[C@]3(CCC(=O)[C@@H]32)[C@@H](C)[C@@H]1O.Cl.Cl (stereo partly drawn) | 0.25 | 0.5 | 0.063 | 0.063 | 0.032 | 0.125 | 0.125 | 2 | 1.42
11 | C=C[C@]1(C)C[C@@H](OC(=O)CN2CCN(C(=O)CCn3cnc4c(N5CCC(N)C5)ncnc43)[C@H](C)C2)[C@]2(C)[C@H](C)CC[C@]3(CCC(=O)[C@@H]32)[C@@H](C)[C@@H]1O.Cl.Cl (stereo partly drawn) | 0.25 | 0.5 | 0.125 | 0.125 | 0.063 | 0.25 | 0.25 | 8 | 2.21
12 | C=C[C@]1(C)C[C@@H](OC(=O)CN2CCN(C(=O)CCn3cnc4c(N5CC[C@@H](CNC)C5)ncnc43)CC2)[C@]2(C)[C@H](C)CC[C@]3(CCC(=O)[C@@H]32)[C@@H](C)[C@@H]1O.Cl.Cl | 0.25 | 2 | 0.125 | 0.125 | 0.063 | 0.5 | 0.125 | 2 | 1.18
